Experiments:
Plasmodium falciparum [1] = test: ST_JUDE: Plasmodium falciparum K1 EC50 (uM) as measured by SYBR green dye; assay type: functional, organism-based
Plasmodium falciparum [2] = test: ST_JUDE: Plasmodium falciparum 3D7 EC50 (uM) as measured by SYBR green dye; assay type: functional, organism-based

| Compound | EC50 (Plasmodium falciparum [1]) [µM] | EC50 (Plasmodium falciparum [2]) [µM] |
| --- | --- | --- |
| CN1CCN(c2ccc(Nc3ccnc4cc(Cl)ccc34)cc2Cl)CC1 | 0.0571 | 0.0625 |
| CC(C)(C)CNc1cc(N2CCN(C(=O)c3cccs3)CC2)ccc1[N+](=O)[O-] | 4.76 | 4.53 |
| COC(=O)c1c(N)n(-c2ccc(F)cc2F)c2nc3ccccc3nc12 | 3.98 | 0.853 |
| Cc1ccc(C)c(C(C)NC(=S)Nc2ccc([N+](=O)[O-])cc2)c1 (stereo not drawn) | 3.36 | > 15 |
| CCc1c(C)nc(-n2nc(C)cc2NC(=O)c2ccc(C)c(C)c2)nc1O | > 15 | > 15 |
| COc1ccc(NC(=O)COc2c(C)cc(Br)cc2C)c(OC)c1 | 5.44 | > 15 |
| O=[N+]([O-])c1ccc2ncnc(Nc3cc(Cl)ccc3O)c2c1 | 1.75 | 1.62 |
| CCN(CC)CC/N=c1\cc(-c2ccc(OC)c(OC)c2)oc2ccc(Cl)cc12.[O-][Cl+3]([O-])([O-])O | 5.14 | 0.543 |
| Oc1ccc(Br)cc1CN1CCN(Cc2ccc(Cl)cc2)CC1 | 0.215 | 1.48 |
| CCCCOc1ccc(N2C(N)=NC(N)=NC2(C)C)cc1 | > 15 | 2.79 |
| CCOc1ccc(-c2nonc2NC(=O)CC(C)C)cc1OCC | 3.78 | 3.14 |
| CCC(C)c1ccc(NC(=O)c2ccc(Br)o2)c(O)c1 (stereo not drawn) | 2.57 | 1.93 |
| O=C1C(Nc2ccc(I)cc2)=C(N2CCCCC2)C(=O)c2ccccc21 | 0.395 | 0.153 |
| COc1ccc(OC)c(C2CC(=O)C3=C(C2)NC(=O)CC3c2ccc([N+](=O)[O-])cc2)c1 (stereo not drawn) | 1.53 | > 15 |
| Oc1c(C(Nc2ccccn2)c2cccc(Cl)c2)cc(Cl)c2cccnc12 (stereo not drawn) | 4.69 | 7.66 |
| O=C(NC(NC(=S)Nc1ccc(Cl)cc1)C(Cl)(Cl)Cl)c1ccccc1F (stereo not drawn) | 4.07 | 2.73 |
| CCN(CC)CCn1c(=N)n(CCOc2ccc(Cl)cc2Cl)c2ccccc21 | 7.48 | > 15 |
| CC(C)=CCN1CCC(C(=O)Nc2ccc(-c3nc4ccccc4[nH]3)cc2)CC1 | 6.76 | 1.34 |
| O=C(Nc1cccc(C(F)(F)F)c1)c1cc(Cl)ccc1O | 1.2 | 0.973 |
